According to patent US7067531B2, “Farnesyl transferase inhibiting 6-heterocyclylmethyl quinolinone derivatives” (priority 2000, dated 2006):

| melting point | SMILES |
| --- | --- |
| 248 °C | Cn1cncc1C(O)(c1ccoc1)c1ccc2c(c1)c(-c1cccc(Cl)c1)cc(=O)n2C (racemic) [Example B6, (±)-4-(3-chlorophenyl)-6-[3-furanylhydroxy(1-methyl-1H-imidazol-5-yl)methyl]-1-methyl-2(1H)-quinolinone] |
| 149 °C | O=C(O)C(=O)O.O=c1[nH]c2ccc(C(c3nc(-c4ccccc4)cs3)n3ccnc3-c3ccccc3)cc2c(-c2cccc(Cl)c2)c1CO (centres unmarked) |
| 197 °C | Cn1cncc1C(N)(c1ccoc1)c1ccc2c(c1)c(-c1cccc(Cl)c1)cc(=O)n2C (racemic) [Example B8, (±)-6-[amino-3-furanyl(1-methyl-1H-imidazol-5-yl)methyl]-4-(3-chlorophenyl)-1-methyl-2(1H)-quinolinone] |
| 130 °C | Cn1cncc1C(O)(c1ccc2c(c1)c(-c1cccc(Cl)c1)cc(=O)n2C)c1nccn1C (centres unmarked) [Example B7, 4-(3-chlorophenyl)-6-[hydroxy(1-methyl-1H-imidazol-2-yl)(1-methyl-1H-imidazol-5-yl)methyl]-1-methyl-2(1H)-quinolinone] |
| 246 °C | Cn1cncc1C(O)(c1ccc2c(c1)c(-c1cccc(Cl)c1)cc(=O)n2C)c1nccs1 (racemic) [Example B3 F2, (±)-4-(3-chlorophenyl)-6-[hydroxy(1-methyl-1H-imidazol-5-yl)-2-thiazolylmethyl]-1-methyl-2(1H)-quinolinone] |
